Source: patent US6306846A, “Anti-inflammatory and anti-ulcer compounds and process” (priority 1995, dated 2001)

How the values were obtained:
[1] = Carrageenin Foot Edema Model; format: in vivo, rat (male, Sprague Dawley); settings: hydrocortisone comparison; model not given
Protocol: (§1) (1) Carrageen in Foot Edema Model as described in Experentia, 6, pp. 469-71, "Zur Frage des Mechanis Mos der Hemmung des Bindegebswachstums durch Cortisone" (1950);
The foregoing literature references were followed in the following tests unless otherwise stated and they are incorporated by reference herein. Each test model will only be briefly described. Each test model is a recognized and accepted model for testing drugs for the treatment of arthritis.
In this test model test rats were injected with carrageenin in a hind paw one hour after administration of the copper coordination compound. The carrageenin induced inflammation. The rats were male, of the Sprague Dawley variety and weighed on the average 120 grams. The copper coordination compounds were first introduced subcutaneously. The dosages were compounded as follows:
The suspending agent was Tween 80, a nonionic surfactant sold by the Atlas Powder Company. A full description of it is contained at p. 648 of Remingtons Practice of Pharmacy (11th ed., Martin & Cook, The Mack Publishing Co., Easton Pa. 1956). Generally they may be described as a complex mixture of polyoxyethylene ethers of mixed oleic esters of sorbitol anhydrides. The initial screening dosage was 25 mg of the copper coordination compound given in one injection to ten rats. Compounds which were active received further testing at 5.0 mg and lower dosages. Each dosage was administered to at least ten rats. A dose was rated active if it caused a significant decrease (P<0.05) in the circumference of the feet injected with carrageenin six hours after administration. […] As a reference standard, saline solution plus suspending agent was subcutaneously administered to each of the ten rats.

in vivo = settings: for TI CFE / TI PA / selectivity ratio: ratio of lethal dose to effective dose
Description: In addition to the foregoing anti-inflammatory and anti-ulcer tests, several LD50 tests [performed in accordance with Miller et al, Proceed. of The Society of Expt'l. Medicine, 57, p.

[2] = Anti-inflammatory test models, overall statement; format: in vivo, rat; settings: using only one test model
Description: In order to test the anti-inflammatory activities of my copper coordination compounds, the following test models were employed:
as §1
(2) Cotton Wad Granuloma Model as described in J. Pharmacol. Expt'l. Ther., 141, pp. 369-76, "Anti-inflammatory and Antipyretic Activities of Indomethacin, 9-(p-chlorobenzoyl)-5-Methoxy-2-Methyl-Indole-3-Acetic Acid" (1963); and
(3) Polyarthritis Model as described in Nature, 224, pp. 1320-21, "Effect of Prostaglandin E2 on Adjuvant Arthritis" (1969).

Row | Molecule | % potency compared with hydrocortisone [1] | LD50 (in vivo; SC) | TI CFE (in vivo; CFE (carrageenin foot edema)) | TI PA (in vivo; PA (polyarthritis)) | anti-inflammatory activity at the initial screening tests [2] | further results
1 | Nc1ccccc1C(=O)[O-].Nc1ccccc1C(=O)[O-].[Cu+2] [Example 3, Bisanthranilato(O,N)copper(II)] | 60% | 750 ± 106 mpk | 150 | 750 | – | –
2 | O=C(O)c1cccnc1Nc1cccc(C(F)(F)F)c1 [tpan, 2[3(trifluoro-methyl)phenyl]aminonicotinic acid] | 31% | – | – | – | – | selectivity ratio (in vivo; in vivo, TI CFE, CFE (carrageenin foot edema)): 15; selectivity ratio (in vivo; in vivo, TI PA, PA (polyarthritis)): 74; LD50 (in vivo; in vivo, po): 370 ± 25 mg/kg
3 | CC(=O)Oc1ccccc1C(=O)[O-].CC(=O)Oc1ccccc1C(=O)[O-].CC(=O)Oc1ccccc1C(=O)[O-].CC(=O)Oc1ccccc1C(=O)[O-].[Cu+2].[Cu+2] [Example 5, Tetra(μ-acetylsalicylato)biscopper(II)] | 130% | 760 ± 100 mpk | 150 | 760 | – | –
4 | NC(Cc1c[nH]c2ccccc12)C(=O)[O-].NC(Cc1c[nH]c2ccccc12)C(=O)[O-].[Cu+2] [Example 1, Bis-L-tryptophanato(O,N)copper(II)] | – | – | – | – | no anti-inflammatory activity | –
5 | (D-penicillaminato)2n -(aqua)2n -copper(II)n [Example 8] | – | – | – | – | no anti-inflammatory activity | –
6 | [2[3(trifluoromethyl)phenyl]aminonicotinato]2n -(aqua)n -copper(II)n [Example 6] | 180% | 650 ± 80 mpk | 130 | 650 | – | –
7 | CC(=O)Oc1ccccc1C(=O)O [aspirin, acetylsalicylic acid] | 6% | – | – | – | – | LD50 (in vivo; in vivo): 790 mg/kg; LD50 (in vivo; in vivo, po): 1500 mg/kg
8 | (3-p-chlorophenyl-3,4,5,6-tetrahydro-β-carboline-5-carboxylato)2n-(aqua)2n -copper(II)n [Example 30] | – | – | – | – | no anti-inflammatory activity | –
9 | N[C@@H](Cc1c[nH]c2ccccc12)C(=O)[O-].N[C@@H](Cc1c[nH]c2ccccc12)C(=O)[O-].[Cu+2] (racemic) [Example 16, Bis(D,L-tryptophanato(O,N)copper(II)] | – | – | – | – | no anti-inflammatory activity | –
10 | (17-Hydroxy-3-oxo-17α-pregn-4,6-diene-21-carboxalato)2n -(aqua)2n -copper(II)n [Example 41] | – | – | – | – | no anti-inflammatory activity | –
11 | CC(C)c1cc(C(=O)[O-])c(O)c(C(C)C)c1.CC(C)c1cc(C(=O)[O-])c(O)c(C(C)C)c1.[Cu+2] [Example 4] | 50% | 240 ± 33 mpk | 48 | 240 | – | –
12 | CC(=O)[O-].CC(=O)[O-].[Cu+2] [cupric acetate] | 340% | 350 mpk | 70 | 0 | – | –
